# Calls of active or inactive are those of the source. The calls are words filed in the database; no cut-off is given here.
# Experiments:
# [1] = target: T1, Glycogen phosphorylase, liver form (Rattus norvegicus, UniProt P09811); assay: Inhibition of phosphorylated form of rat liver glycogen phosphorylase
# T1 sequence (P09811 whole entry): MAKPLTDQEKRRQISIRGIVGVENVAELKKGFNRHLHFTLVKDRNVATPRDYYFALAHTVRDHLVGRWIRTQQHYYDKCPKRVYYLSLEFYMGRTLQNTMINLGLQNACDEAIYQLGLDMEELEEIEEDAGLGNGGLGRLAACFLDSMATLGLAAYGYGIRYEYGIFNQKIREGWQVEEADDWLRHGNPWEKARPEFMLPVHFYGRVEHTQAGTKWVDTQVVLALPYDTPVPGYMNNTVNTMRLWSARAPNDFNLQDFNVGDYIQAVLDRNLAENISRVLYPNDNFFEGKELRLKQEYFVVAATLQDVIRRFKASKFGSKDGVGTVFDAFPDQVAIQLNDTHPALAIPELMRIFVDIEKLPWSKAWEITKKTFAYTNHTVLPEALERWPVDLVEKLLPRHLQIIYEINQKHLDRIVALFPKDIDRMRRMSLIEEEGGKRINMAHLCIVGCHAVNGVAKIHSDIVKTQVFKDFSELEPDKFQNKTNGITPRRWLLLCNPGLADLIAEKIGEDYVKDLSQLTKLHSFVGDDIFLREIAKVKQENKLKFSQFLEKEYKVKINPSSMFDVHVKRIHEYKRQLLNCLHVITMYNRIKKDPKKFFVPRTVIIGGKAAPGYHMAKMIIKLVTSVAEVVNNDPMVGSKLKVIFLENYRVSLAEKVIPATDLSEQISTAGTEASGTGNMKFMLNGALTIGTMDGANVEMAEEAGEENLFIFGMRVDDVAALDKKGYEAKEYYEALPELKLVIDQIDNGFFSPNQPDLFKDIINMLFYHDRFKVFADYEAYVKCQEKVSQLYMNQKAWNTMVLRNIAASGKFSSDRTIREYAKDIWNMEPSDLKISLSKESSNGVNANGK
# Liver = assay: Inhibition of liver […]; format: functional, tissue-based; settings: Homo sapiens
# Mus musculus = organism: Mus musculus; assay: Antihyperglycemic activity in obese mouse; format: functional, organism-based
# Hepatocyte [2] = assay: cells; settings: Homo sapiens
# Description: Inhibition of glycogen degradation in hepatocytes
# Hepatocyte [3] = assay: cells; settings: Homo sapiens; remark: listed apart in the source
# Description: Inhibition of glucagon-stimulated glycogen degradation in hepatocytes
compound,measurement,setting,value
OC[C@H]1CN(CCCc2ccccc2)C[C@@H](O)[C@@H]1O,IC50,[1],1.22 µM
OC[C@H]1NC[C@@H](O)[C@@H]1O,Activity,Liver,Active
same,Activity,Mus musculus,Active
OC[C@H]1CNC[C@@H](O)[C@@H]1O [AFEGOSTAT],IC50,Hepatocyte [2],3 µM
same,IC50,Hepatocyte [3],2 µM

# Reference: ChEMBL document CHEMBL1137256, “Iminosugars as potential inhibitors of glycogenolysis: structural insights into the molecular basis of glycogen phosphorylase inhibition” (J Med Chem, 2006)
